Measured values as given in publication PMC11996864, “A small-molecule inhibitor of BCL10-MALT1 interaction abrogates progression of diffuse large B cell lymphoma” (The Journal of Clinical Investigation, 2025).
Values joined by “and” are separate entries in the source; they are usually repeats but may differ in a detail not shown here. Identical values can stand only once.

Legend:
[1] = test system: OCI-Ly3 cells; experiment: IL-6 and IL-10 secretion, cytokine ELISA; type: cell-based, human; conditions: for IL-6 and IL-10 secretion: OCI-Ly3, result in words; for IL-6 protein (normalized) / IL-10 protein (normalized): OCI-Ly3 cells, individual replicates n=3
Procedure: Cytokine ELISAs. Cytokines in cell culture supernatants were measured 20-24h after treatment with 0, 0.01, 0.03, 0.1, 0.3, 1, or 3 µM of compounds using the following ELISA kits according to the manufacturer’s instructions: Human IL-2 ELISA (BioLegend Cat# 431804), Human IL-6 ELISA (BioLegend Cat# 430504), and Human IL-10 ELISA (BioLegend Cat# 430604). […]

[2] = test system: TMD8 tumor xenografts; experiment: TMD8 xenograft in NOD-SCID mice; type: in vivo, mouse
Description: TMD8 cells were engrafted into 8-week-old female NOD.CB17-Prkdc^scid/J (NOD-SCID) mice from The Jackson Laboratory by subcutaneous injection of 10 × 10^6 cells resuspended in 50% Cultrex Basement Membrane Extract (R&D Systems, catalog 3632-010-02) into the right flank. OCI-Ly3 cells were engrafted into 5-week-old female NOD.Cg-Prkdc^scid Il2rg^tm1Wjl/SzJ (NSG) mice from The Jackson Laboratory by subcutaneous injection of 2.5 × 10^6 cells resuspended in Cultrex as above. OCI-Ly1 cells were engrafted into 6.5-week-old female NSG mice from The Jackson Laboratory by subcutaneous injection of 20 × 10^6 cells resuspended in Cultrex as above. For all xenograft models, when tumors reached an average volume of 100 mm^3, mice were randomized to receive M1i-124 (50 mg/kg i.p. per day), or equivalent volume of DMSO vehicle (50 μL i.p. per day). […] Tumor size was measured 3 times a week using a caliper and calculated using the formula (smallest diameter^2 × largest diameter)/2. Mice were sacrificed 24 hours after the last injection. Mice were sacrificed when the largest tumors reached 2,500 mm^3. For TMD8 xenograft experiments, tumors and various organs, including lung, heart, liver, and kidney, were collected and fixed in 10% buffered formalin, embedded in FFPE blocks, sectioned, and stained with H&E. Sections were evaluated by a board-certified pathologist.

[3] = test system: IκB phosphorylation in TMD8 cells; experiment: Constitutive IκB phosphorylation, Western blot; type: cell-based, human; conditions: for IκB phosphorylation in TMD8 cells: result in words
Procedure: Western blot analysis of RelB and N4BP1 cleavage was used to test the effect of small molecules on MALT1 protease activity. To this end, 3 million Jurkat T cells were pretreated with compounds for 24 hours in serum-free media, and then 5 μM MG-132 was added for 1 hour before stimulation with CD3/CD28 (Stemcell Technologies, catalog 10971), and lysed in RIPA buffer (Millipore, catalog 20-188) with protease and phosphatase inhibitor cocktail (Pierce, catalog 78446). IKKα/β phosphorylation and IκBα phosphorylation were used as measures of MALT1 scaffolding activity, while ERK1/2 phosphorylation was used as a control. Two million Jurkat T cells were treated with 1 μM M1i-124, 1 μM M1i-124d1, or DMSO in serum-free media for 16 hours, stimulated with CD3/CD28 for 0, 5, 10, or 20 minutes, and then immediately lysed in RIPA buffer with protease and phosphatase inhibitors. For experiments evaluating RelB cleavage and phosphorylation of IκBα in TMD8 cells, cells were treated with compounds for 24 hours in media containing 5% FBS. For RelB Western blot analysis, 5 μM MG-132 (Cell Signaling Technology, catalog 2194s) was added 4 hours before lysis in RIPA lysis buffer with protease/phosphatase inhibitors.

[4] = test system: OCI-Ly3 cells; experiment: IL6 and IL10 mRNA, qRT-PCR; type: cell-based, human; conditions: for IL6 and IL10 mRNA levels: OCI-Ly3, 1 μM, 24 hours, result in words; for IL6 mRNA levels (normalized) / IL10 mRNA levels (normalized): Suppl Fig. 5C
Procedure: Total RNA extraction from cell lines was performed using RNeasy Plus Mini Kit (Qiagen, Cat# 74136). […]
Kit. RNA was transcribed into cDNA using High-Capacity cDNA Reverse Transcription Kit (Applied Biosystems, Cat# 4368814) according to manufacturer’s instructions. RT-PCR was performed using TaqMan Universal PCR Master Mix (Applied Biosystems, Cat# 4304437) and run on a StepOnePlus Real-Time PCR machine (Applied Biosystems). The following probes from ThermoFisher Scientific were used for qRT-PCR: IL2 TaqMan probe Hs00174114, IL6 TaqMan

[5] = test system: WT C57BL/6 mice; experiment: Flow cytometry of spleen immune cell subsets after 12 days of treatment; type: in vivo, mouse; conditions: 50 mg/kg, vs vehicle, result in words
Procedure: Long-term in vivo toxicity experiments. WT C57/BL6 (The Jackson Laboratory) male and female mice were treated daily with 50 mg/kg M1i-124 or vehicle control for 28 days. At the time of sacrifice, blood was obtained for complete blood count, alanine transaminase, albumin, and total bilirubin (Abaxis). Livers from control and M1i-124 treated mice were collected for H&E analysis.
Flow cytometry. Splenocytes were isolated from WT mice after 12 days of treatment with 50 mg/kg M1i-124 or vehicle control. After obtaining a single cell suspension using […] filter, cells were stained with viability dye (Tonbo Biosciences Ghost Red 780, Fisher Healthcare, Cat #50-105-2988). After blocking with mouse BD Fc BlockTM (BD Biosciences, Cat# 553141), splenocytes were stained with a panel of antibodies including antibodies from Invitrogen (anti-CD3 APC, Cat# […]
0251-82 and anti-NK1.1 PE-Cyanine 7 Cat#25-5941-82), an antibody from BD Bioscience (anti- […]
and anti-CD4 BV711 Cat# 100557). Samples were run on a 5 laser LSR Fortessa flow cytometer and analyzed with FlowJo software.

[6] = test system: OCI-Ly3 cells; experiment: Cell proliferation, trypan blue cell count; type: cell-based, human; conditions: OCI-Ly3, single 1 μM dose, 12 days, result in words
Description: Cell proliferation, viability, and apoptosis assays. Starting with ~20,000 DLBCL cells in 5% FBS
at day 0, cell number was counted using the trypan blue dye exclusion method with Vi-CELL cell

| SMILES | IL-6 and IL-10 secretion [1] | IL-6 protein (normalized) ([1]; dose 0.01 µM) | IL-10 protein (normalized) ([1]; dose 0.01 µM) | IL-6 protein (normalized) ([1]; dose 0.03 µM) | IL-10 protein (normalized) ([1]; dose 0.03 µM) | IL-6 protein (normalized) ([1]; dose 0.1 µM) | IL-10 protein (normalized) ([1]; dose 0.1 µM) | IL-6 protein (normalized) ([1]; dose 0.3 µM) | IL-10 protein (normalized) ([1]; dose 0.3 µM) | IL-6 protein (normalized) ([1]; dose 1 µM) | IL-10 protein (normalized) ([1]; dose 1 µM) | IL-6 protein (normalized) ([1]; dose 3 µM) | IL-10 protein (normalized) ([1]; dose 3 µM) | IκB phosphorylation in TMD8 cells [3] | IL6 and IL10 mRNA levels [4] | IL6 mRNA levels (normalized) [4] | IL10 mRNA levels (normalized) [4] | expansion of culture (proliferation) [6] | also measured |
| --- | --- | --- | --- | --- | --- | --- | --- | --- | --- | --- | --- | --- | --- | --- | --- | --- | --- | --- | --- |
| O=S(=O)(NCc1ccc2c(c1)OCO2)c1ccc(Cc2ccc(S(=O)(=O)NCc3ccc4c(c3)OCO4)cc2)cc1 [M1i-124] | dose-dependent reduction of IL-6 and IL-10 secretion | 107.046 and 97.7137 and 87.0295 | 103.16 and 104.534 and 97.5052 | 96.5093 and 109.876 and 83.6147 | 91.281 and 93.6459 and 78.8249 | 75.4106 and 89.2481 and 95.3244 | 87.8156 and 90.4046 and 87.8267 | 61.7285 and 64.3367 and 64.4209 | 53.7308 and 68.0081 and 65.3126 | 45.5755 and 29.5412 and 43.2472 | 42.8574 and 34.5822 and 37.4365 | 32.8587 and 36.4245 and 37.9702 | 27.1129 and 25.9246 and 27.6249 | marked reduction in IκB phosphorylation | significantly decrease IL6 and IL10 mRNA levels | 0.63 and 0.57 and 0.56 and 0.54 and 0.48 and 0.61 | 0.7074 and 0.77 and 0.73 and 0.8 and 0.4913 and 0.4249 and 0.7438 | significant reduction in the expansion | growth of TMD8 tumor xenografts (tumor volume, terminal tumor weight) ([2]; 50 mg/kg i.p. per day, 12 days, vs DMSO, result in words): significantly suppressed; body weight of xenograft mice ([2]; at conclusion of experiment, result in words): slightly lower body weights; microscopic evaluation of major organs ([2]; heart, lung, liver, adrenal, kidney, result in words): no signs of histologic abnormality; Terminal body weights ([2]; individual mice): 17.69 g and 19.26 g and 19.45 g and 20.17 g and 20.3 g and 20.4 g and 20.6 g and 20.42 g; clinical signs during treatment ([2]; result in words): No abnormal clinical signs or indicators of adverse reaction were observed; percentage of total lymphocytes and specific lymphocyte populations within the spleen [5]: no difference |
| COc1ccc(CNS(=O)(=O)c2ccc(Cc3ccc(S(=O)(=O)NCc4ccc(OC)cc4)cc3)cc2)cc1 [M1i-124d1] | dose-dependent reduction of IL-6 and IL-10 secretion | 99.5607 and 97.9207 and 112.031 | 79.7769 and 92.2916 and 96.3976 | 98.1802 and 88.2708 and 79.406 | 92.2982 and 70.1649 and 75.2443 | 82.137 and 88.0559 and 90.8694 | 78.4383 and 79.1463 and 60.8949 | 78.0338 and 77.6618 and 76.9556 | 68.3626 and 76.063 and 76.9269 | 82.5608 and 76.3464 and 79.062 | 58.0215 and 44.447 and 56.2881 | 67.8445 and 70.7121 and 79.6228 | 43.78 and 51.6743 and 38.3491 | marked reduction in IκB phosphorylation | significantly decrease IL6 and IL10 mRNA levels | 0.61 and 0.76 and 0.58 and 0.67 and 0.68 | 0.5473 and 0.5 and 0.74 and 0.4125 and 0.4002 and 0.6402 | significant reduction in the expansion | pIkB (normalized) ([3]; TMD8, 1 μM, 24 hours): 0.264 and 0.345 |
